Results published in patent publication US5922680A, “Stabilized composition for oral administration of peptides” (Ferring, B.V., priority 1997, dated 1999).

Conditions: pH 6.5
Protocol: Human gastro-intestinal juice was obtained from healthy male volunteers who had been fasting for 8 h. A tube was introduced intranasally after local anaesthesia with xylocaine, and gastric juice was collected. Thereafter one standardized meal was given 1 h before sampling of duodenal and distal jejunum juice and another the next morning before the collection of distal ileal juice. After centrifugation the gastric and intestinal juices were frozen in aliquots of 1 ml and stored at -20° C. […] The peptide or peptide analog (10 μl of 10 mM peptide in 0.9% aqueous NaCl) was added to 190 μl of undiluted juice at 37° C. Aliquots of 25 μl were withdrawn at intervals and mixed with 100 μl acetone to stop the reaction. After centrifugation for 10 min at 10,000 g, 10 μl of the supernatant was analyzed by reversed phase HPLC. […] Analysis was carried out in a Varian 5000 HPLC analyzer equipped with a UV-detector (220 nm). Column Bondapak TM C18 (3.9×300 mm), eluant MeOH/0.025 M NH4 Ac (isocratic conditions), flow rate 1 ml/min. […] Protein: Bio-Rad protein assay. pH: Orion model SA720; pH-paper Merck (Darmstadt), range 4.0-7.0.

- DDAVP degraded (to about 50%): about 50%
Compound: NC(=O)CC[C@@H]1NC(=O)[C@H](Cc2ccccc2)NC(=O)[C@H](Cc2ccc(O)cc2)NC(=O)CCSSC[C@@H](C(=O)N2CCC[C@H]2C(=O)N[C@H](CCCN=C(N)N)C(=O)NCC(N)=O)NC(=O)[C@H](CC(N)=O)NC1=O [DDAVP, Mpa-Tyr-Phe-Gln-Asn-Cys-Pro-D-Arg-Gly-GlyNH2]
